What was measured:
Assay type in all cases: in vivo
[1] = system: velvetleaf (Abutilon theophrasti): ABUTH; experiment: Test Example 1 pre-emergence herbicidal activity, ABUTH; details: Rate 63 g a.i./ha, visually observed 20th to 23rd day after application
How it was run: (§1)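 Read-out: visual growth control (%, 0–100, 100 = complete kill) assessed 20 to 23 days post-treatment. Compound was applied pre-emergence by small sprayer, one day after sowing into upland soil pots, in 500 L/ha water.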

[2] = system: crabgrass (Digitaria sanguinalis L.): DIGSA; experiment: Test Example 1 pre-emergence herbicidal activity, DIGSA; details: Rate 63 g a.i./ha, visually observed 20th to 23rd day after application
How it was run: as §1

[3] = system: prickly sida (Sida spinosa L.): SEDSP; experiment: Test Example 1 pre-emergence herbicidal activity, SIDSP; details: Rate 63 g a.i./ha, visually observed 20th to 23rd day after application
How it was run: as §1

[4] = system: soybean (Glycine max Merr.): GLXMA; experiment: Test Example 1 pre-emergence herbicidal activity, GLXMA; details: Rate 63 g a.i./ha, visually observed 20th to 23rd day after application
How it was run: as §1

[5] = system: barnyardgrass (Echinochloa crus-galli L.): ECHCG; experiment: Test Example 1 pre-emergence herbicidal activity, ECHCG; details: Rate 63 g a.i./ha, visually observed 20th to 23rd day after application
How it was run: as §1

[6] = system: corn (Zea mays L.), ZEAMX; experiment: Test Example 2 post-emergence (foliage treatment) herbicidal activity, ZEAMX; details: 63 g a.i./ha
How it was run: (§2)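 Each species was evaluated for growth suppression by eye, 0% matching untreated and 100% meaning death, some 20 to 23 days after a single post-emergence foliar treatment applied in 500 L/ha of water carrying 0.1% (v/v) agricultural spreader.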

[7] = system: prickly sida (Sida spinosa L.), SIDSP; experiment: Test Example 2 post-emergence (foliage treatment) herbicidal activity, SIDSP; details: 63 g a.i./ha
How it was run: as §2

[8] = system: green foxtail (Setaria viridis L.), SETVI; experiment: Test Example 2 post-emergence (foliage treatment) herbicidal activity, SETVI; details: 63 g a.i./ha
How it was run: as §2

[9] = system: rice (Oryza sativa L.): ORYSA; experiment: Test Example 1 pre-emergence herbicidal activity, ORYSA; details: Rate 63 g a.i./ha, visually observed 20th to 23rd day after application
How it was run: as §1

[10] = system: japanese ribbon wapato (Sagittaria pygmaea: SA GPY); experiment: Test Example 3 water application herbicidal activity (paddy), SAGPY; details: 63 g a.i./ha, water application under submerged condition, tubers planted, visually observed 14th day after application; 0 = untreated control, 100 = complete kill
How it was run: (§3)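 Compound, as diluted wettable powder or emulsifiable concentrate, was pipetted into flood water at a set active-ingredient dose. Weeds were treated at 0.5-leaf stage after sowing or tuber planting; 2-leaf rice 4 days post-transplant. Control scored visually, 0 untreated to 100 complete kill, weeds day 14, rice day 21.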

[11] = system: soybean (Glycine max Merr.), GLXMA; experiment: Test Example 2 post-emergence (foliage treatment) herbicidal activity, GLXMA; details: 63 g a.i./ha
How it was run: as §2

[12] = system: velvetleaf (Abutilon theophrasti), ABUTH; experiment: Test Example 2 post-emergence (foliage treatment) herbicidal activity, ABUTH; details: 63 g a.i./ha
How it was run: as §2

[13] = system: rice (Oryza sativa L.), ORYSA; experiment: Test Example 2 post-emergence (foliage treatment) herbicidal activity, ORYSA; details: 63 g a.i./ha
How it was run: (§4)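 Post-emergence, upland soil pots; leaf stage at spray: ECHCG 1.1-2.1 / DIGSA 1.0-2.0 / AMARE 0.1-1.5 / ORYSA 1.0-2. WP or EC formulation, set active ingredient rate, 500 L/ha water + 0.1% v/v spreader. Visual rating at d20-23, % control 0-100.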

[14] = system: redroot pigweed (Amaranthus retroflexus L.), AMARE; experiment: Test Example 2 post-emergence (foliage treatment) herbicidal activity, AMARE; details: 63 g a.i./ha
How it was run: as §4

[15] = system: rice (Oryza sativa L.: ORYSA); experiment: Test Example 3 water application herbicidal activity (paddy), transplanted rice ORYSA; details: 63 g a.i./ha, water application 4th day after transplantation of 2 leaf stage rice, visually observed 21st day after application; 0 = untreated control, 100 = complete kill
How it was run: as §3

[16] = system: barnyardgrass (Echinochloa crus-galli L.), ECHCG; experiment: Test Example 2 post-emergence (foliage treatment) herbicidal activity, ECHCG; details: 63 g a.i./ha
How it was run: as §4

[17] = system: barnyardgrass (Echinochiloa oryzicola: ECHOR); experiment: Test Example 3 water application herbicidal activity (paddy), ECHOR; details: 63 g a.i./ha, water application under submerged condition at 0.5 leaf stage, visually observed 14th day after application; 0 = untreated control, 100 = complete kill
How it was run: as §3

[18] = system: japanese bulrush (Scirpus juncoides: SCPJO); experiment: Test Example 3 water application herbicidal activity (paddy), SCPJO; details: 63 g a.i./ha, water application under submerged condition at 0.5 leaf stage, visually observed 14th day after application; 0 = untreated control, 100 = complete kill
How it was run: as §3

[19] = system: wheat (Triticum aestivum L.), TRZAX; experiment: Test Example 2 post-emergence (foliage treatment) herbicidal activity, TRZAX; details: 63 g a.i./ha
How it was run: as §2

[20] = system: crabgrass (Digitaria sanguinalis L.), DIGSA; experiment: Test Example 2 post-emergence (foliage treatment) herbicidal activity, DIGSA; details: 63 g a.i./ha
How it was run: as §4

[21] = system: green foxtail (Setaria viridis L.): SETVI; experiment: Test Example 1 pre-emergence herbicidal activity, SETVI; details: Rate 63 g a.i./ha, visually observed 20th to 23rd day after application
How it was run: as §1

[22] = system: corn (Zea mays L.): ZEAMX; experiment: Test Example 1 pre-emergence herbicidal activity, ZEAMX; details: Rate 63 g a.i./ha, visually observed 20th to 23rd day after application
How it was run: as §1

[23] = system: wheat (Triticum aestivum L.): TRZAX; experiment: Test Example 1 pre-emergence herbicidal activity, TRZAX; details: Rate 63 g a.i./ha, visually observed 20th to 23rd day after application
How it was run: as §1

[24] = system: redroot pigweed (Amaranthus retroflexus L.): AMARE; experiment: Test Example 1 pre-emergence herbicidal activity, AMARE; details: Rate 63 g a.i./ha, visually observed 20th to 23rd day after application
How it was run: as §1

Row | Structure (SMILES) | Pre-emergence Herbicidal Activity ABUTH (growth controlling degree) [1] | Pre-emergence Herbicidal Activity DIGSP (growth controlling degree) [2] | Pre-emergence Herbicidal Activity SIDSP (growth controlling degree) [3] | Pre-emergence Herbicidal Activity GLXMA (growth controlling degree) [4] | Pre-emergence Herbicidal Activity ECHCG (growth controlling degree) [5] | growth controlling degree, ZEAMX [6] | growth controlling degree, SIDSP [7] | growth controlling degree, SETVI [8] | Pre-emergence Herbicidal Activity ORYSA (growth controlling degree) [9] | growth controlling degrees (%) SAGPY [10] | growth controlling degree, GLXMA [11] | growth controlling degree, ABUTH [12] | growth controlling degree, ORYSA [13] | growth controlling degree, AMARE [14] | growth controlling degrees (%) ORYSA [15] | growth controlling degree, ECHCO [16] | growth controlling degrees (%) ECHOR [17] | growth controlling degrees (%) SCPJO [18] | growth controlling degree, TRZAX [19] | growth controlling degree, DIGSP [20] | further results
1 | COc1c(Cl)cc(F)c(-c2nn(C)c(OC(F)F)c2Cl)c1NC(=O)OCc1ccccc1Cl [Compound 1-63] | 30% | 40% | 20% | 0% | 30% | 70% | 100% | 100% | 0% | 70% | 60% | 100% | 60% | 100% | 40% | 100% | 100% | 70% | 40% | 90% | Pre-emergence Herbicidal Activity SETVI (growth controlling degree) [21]: 30%; Pre-emergence Herbicidal Activity ZEAMX (growth controlling degree) [22]: 0%; Pre-emergence Herbicidal Activity TRZAX (growth controlling degree) [23]: 10%; Pre-emergence Herbicidal Activity AMARE (growth controlling degree) [24]: 100%
2 | COc1c(Cl)cc(F)c(-c2nn(C)c(OC(F)F)c2Cl)c1NC(=O)CCOc1ccccc1 [Compound 1-34] | 30% | 60% | 70% | 0% | 0% | 50% | 100% | 100% | 0% | 80% | 70% | 100% | 40% | 100% | 30% | 70% | 100% | 50% | 30% | 70% | Pre-emergence Herbicidal Activity SETVI (growth controlling degree) [21]: 70%; Pre-emergence Herbicidal Activity ZEAMX (growth controlling degree) [22]: 0%; Pre-emergence Herbicidal Activity TRZAX (growth controlling degree) [23]: 0%; Pre-emergence Herbicidal Activity AMARE (growth controlling degree) [24]: 100%
3 | COc1c(Cl)cc(F)c(-c2nn(C)c(OC(F)F)c2Cl)c1NC(=O)c1ccccc1C [Compound 1-24] | 100% | 100% | 100% | 10% | 95% | 90% | 100% | 100% | 60% | 90% | 100% | 100% | 98% | 100% | 60% | 100% | 100% | 80% | 50% | 98% | Pre-emergence Herbicidal Activity SETVI (growth controlling degree) [21]: 100%; Pre-emergence Herbicidal Activity ZEAMX (growth controlling degree) [22]: 10%; Pre-emergence Herbicidal Activity TRZAX (growth controlling degree) [23]: 20%; Pre-emergence Herbicidal Activity AMARE (growth controlling degree) [24]: 100%
4 | COc1ccc(C(=O)Nc2c(OC)c(Cl)cc(F)c2-c2nn(C)c(OC(F)F)c2Cl)cc1 [Compound 1-29] | 100% | 100% | 100% | 20% | 80% | 60% | 100% | 100% | 40% | 60% | 100% | 95% | 80% | 100% | 50% | 100% | 100% | 50% | 50% | 100% | Pre-emergence Herbicidal Activity SETVI (growth controlling degree) [21]: 100%; Pre-emergence Herbicidal Activity ZEAMX (growth controlling degree) [22]: 20%; Pre-emergence Herbicidal Activity TRZAX (growth controlling degree) [23]: 10%; Pre-emergence Herbicidal Activity AMARE (growth controlling degree) [24]: 100%
5 | COc1ccc(OC(=O)Nc2c(OC)c(Cl)cc(F)c2-c2nn(C)c(OC(F)F)c2Cl)cc1 [Compound 1-57] | 60% | 80% | 70% | 0% | 70% | 90% | 100% | 100% | 20% | 100% | 90% | 100% | 95% | 100% | 50% | 100% | 100% | 100% | 40% | 100% | Pre-emergence Herbicidal Activity SETVI (growth controlling degree) [21]: 95%; Pre-emergence Herbicidal Activity ZEAMX (growth controlling degree) [22]: 0%; Pre-emergence Herbicidal Activity TRZAX (growth controlling degree) [23]: 30%; Pre-emergence Herbicidal Activity AMARE (growth controlling degree) [24]: 100%

Source: patent publication US20050245399A1, “Pyrazole derivatives as herbicidal compositions containing them” (ISHIHARA SANGYO KAISHA, LTD., priority 2004, published 2005)
